{"source": "patent US11028064B2", "about": "“Tricyclic heterocyclic derivatives and uses thereof” (AUCKLAND UNISERVICES LIMITED, priority 2016, dated 2021)", "key": {"CSF-1R (FMS) [1]": {"molecular_target": "T1, CSF-1R (FMS) (Homo sapiens (Human), UniProt P07333)", "T1 sequence (P07333 20-972)": "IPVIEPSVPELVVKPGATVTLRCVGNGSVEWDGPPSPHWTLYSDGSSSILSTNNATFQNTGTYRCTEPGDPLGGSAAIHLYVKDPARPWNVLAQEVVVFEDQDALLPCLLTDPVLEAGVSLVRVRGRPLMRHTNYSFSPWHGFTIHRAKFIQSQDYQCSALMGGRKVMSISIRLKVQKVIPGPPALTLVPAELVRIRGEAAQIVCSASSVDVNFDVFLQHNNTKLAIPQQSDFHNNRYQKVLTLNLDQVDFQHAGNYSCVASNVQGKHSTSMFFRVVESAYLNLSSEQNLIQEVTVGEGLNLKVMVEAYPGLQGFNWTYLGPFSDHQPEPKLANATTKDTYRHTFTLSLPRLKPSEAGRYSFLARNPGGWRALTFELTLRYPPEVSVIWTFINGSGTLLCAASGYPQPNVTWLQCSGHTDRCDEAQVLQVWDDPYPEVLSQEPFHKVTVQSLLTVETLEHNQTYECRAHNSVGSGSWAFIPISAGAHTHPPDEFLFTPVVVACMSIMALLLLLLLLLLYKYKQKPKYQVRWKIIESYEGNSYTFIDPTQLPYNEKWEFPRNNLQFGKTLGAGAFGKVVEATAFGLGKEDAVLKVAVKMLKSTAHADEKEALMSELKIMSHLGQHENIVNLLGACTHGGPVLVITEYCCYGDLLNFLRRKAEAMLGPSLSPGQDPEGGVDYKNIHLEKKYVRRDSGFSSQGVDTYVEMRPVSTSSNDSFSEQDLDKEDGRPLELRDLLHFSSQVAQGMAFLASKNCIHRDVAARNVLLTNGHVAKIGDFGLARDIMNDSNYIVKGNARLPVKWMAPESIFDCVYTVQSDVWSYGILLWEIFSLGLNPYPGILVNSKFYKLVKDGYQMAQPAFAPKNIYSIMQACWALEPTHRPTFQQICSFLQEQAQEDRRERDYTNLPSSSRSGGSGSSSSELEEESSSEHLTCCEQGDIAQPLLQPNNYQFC", "conditions": "representative value, substrate Tyr 01, ATP Bin 500 μM; read-out: IC50 (nM) of known inhibitor, CSF-1R (FMS); cited from earlier work"}, "[2]": {"test_system": "CD11b and CD24 positive cells", "experiment": "In vivo efficacy study: flow cytometry of blood leukocytes from mice bearing NZM12 human melanoma xenografts", "set-up": "species or system NIH-III female mice", "conditions": "dosed daily for 14 days"}, "KDR (VEGFR2)": {"molecular_target": "KDR (VEGFR2) (Homo sapiens (Human), UniProt P35968)", "sequence (P35968 20-1356)": "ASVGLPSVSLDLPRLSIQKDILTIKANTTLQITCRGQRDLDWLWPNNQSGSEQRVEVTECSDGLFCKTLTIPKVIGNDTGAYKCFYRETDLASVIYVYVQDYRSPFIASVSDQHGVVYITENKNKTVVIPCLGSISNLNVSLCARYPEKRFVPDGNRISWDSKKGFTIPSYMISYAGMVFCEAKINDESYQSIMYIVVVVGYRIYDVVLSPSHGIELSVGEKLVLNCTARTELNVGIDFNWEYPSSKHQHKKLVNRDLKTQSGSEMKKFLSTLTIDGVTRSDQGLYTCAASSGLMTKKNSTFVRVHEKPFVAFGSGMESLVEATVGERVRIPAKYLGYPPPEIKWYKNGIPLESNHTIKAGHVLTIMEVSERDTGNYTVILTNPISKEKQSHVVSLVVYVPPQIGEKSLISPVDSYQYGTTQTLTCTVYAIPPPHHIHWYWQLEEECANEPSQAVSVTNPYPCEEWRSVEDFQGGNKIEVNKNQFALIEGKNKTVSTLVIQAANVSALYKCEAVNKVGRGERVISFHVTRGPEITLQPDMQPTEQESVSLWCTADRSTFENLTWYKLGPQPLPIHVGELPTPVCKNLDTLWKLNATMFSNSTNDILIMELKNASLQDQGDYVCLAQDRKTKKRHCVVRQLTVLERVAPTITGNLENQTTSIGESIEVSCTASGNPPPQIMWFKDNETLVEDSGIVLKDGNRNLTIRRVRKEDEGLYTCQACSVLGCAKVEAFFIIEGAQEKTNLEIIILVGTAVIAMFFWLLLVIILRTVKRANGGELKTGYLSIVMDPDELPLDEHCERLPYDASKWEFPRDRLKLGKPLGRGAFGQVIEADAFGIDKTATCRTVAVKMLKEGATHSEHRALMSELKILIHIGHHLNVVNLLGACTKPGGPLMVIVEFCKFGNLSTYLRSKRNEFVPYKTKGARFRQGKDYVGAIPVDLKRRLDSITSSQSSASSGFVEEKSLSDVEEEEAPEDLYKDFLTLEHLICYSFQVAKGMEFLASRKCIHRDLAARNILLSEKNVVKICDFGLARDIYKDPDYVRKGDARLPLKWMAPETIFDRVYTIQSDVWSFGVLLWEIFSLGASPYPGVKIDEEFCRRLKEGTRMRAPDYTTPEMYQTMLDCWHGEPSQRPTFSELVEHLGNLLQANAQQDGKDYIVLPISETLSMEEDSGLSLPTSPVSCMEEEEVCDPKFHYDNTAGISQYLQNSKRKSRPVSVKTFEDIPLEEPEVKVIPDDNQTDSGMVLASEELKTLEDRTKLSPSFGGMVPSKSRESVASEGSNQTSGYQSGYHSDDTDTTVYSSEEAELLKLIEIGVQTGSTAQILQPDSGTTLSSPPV", "experiment": "SelectScreen Z'-LYTE kinase assay, Assay 540 for KDR (VEGFR2)", "format": "biochemical", "conditions": "Z'-LYTE activity assay, 75 μM ATP (Km app); read-out: VEGFR2 Enzyme IC50"}, "CSF-1R (FMS) [3]": {"molecular_target": "T1, CSF-1R (FMS)", "experiment": "SelectScreen Z'-LYTE kinase assay, Assay 336 for CSF-1R (FMS)", "format": "biochemical", "conditions": "Z'-LYTE activity assay, 500 μM ATP (Km app); read-out: CSF-1R Enzyme IC50"}}, "note": "pIC50: −log10 of the molar value. Where a name gives a salt, the structure may show the parent alone. Read-outs that look alike come from different tables or passages of the source.", "data": [{"smiles": "COc1cc2ncnc(Nc3cccc(Cl)c3)c2cc1OC", "note": "[Tyrphostin AG1478]", "values": [{"measurement": "IC50", "setting": "CSF-1R (FMS) [1]", "value": 6480, "unit": "nM"}]}, {"smiles": "FC(F)(F)c1ccc(CNc2ccc(Cc3c[nH]c4ncc(Cl)cc34)cn2)cn1", "note": "[PLX3397, Pexidartinib, reference compound]", "values": [{"measurement": "number of cells of myeloid lineage in the treated mice", "setting": "[2]", "value": "reduce the number of cells of myeloid lineage"}]}, {"smiles": "Cc1cc(OCCN(C)C)c2oc3cc(Oc4ccc(CCC(=O)NC5CCCC5)nc4)ccc3c(=O)c2c1", "note": "[dimethanesulfonate salt of compound 22, N-cyclopentyl-3-(5-((5-(2-(dimethylamino)ethoxy)-7-methyl-9-oxo-9H-xanthen-3-yl)-oxy)pyridin-2-yl)propanamide]", "values": [{"measurement": "number of cells of myeloid lineage in the treated mice", "setting": "[2]", "value": "reduce the number of cells of myeloid lineage"}, {"measurement": "levels of CD11b positive cells", "setting": "[2]; blood leukocytes, versus PLX3397 and control (FIG. 1)", "value": "reduced the levels of CD11b and CD24 positive cells to a similar or greater extent compared with treatment with PLX3397"}, {"measurement": "levels of CD24 positive cells", "setting": "[2]; blood leukocytes, versus PLX3397 and control (FIG. 2)", "value": "reduced the levels of CD11b and CD24 positive cells to a similar or greater extent compared with treatment with PLX3397"}]}, {"smiles": "COc1ccc(Cc2ccc3c(=O)c4cc(C)cc(OCCN(C)C)c4oc3c2)cn1", "note": "[Example 19, 4-(2-(Dimethylamino)ethoxy)-6-((6-methoxypyridin-3-yl)methyl)-2-methyl-9H-xanthen-9-one]", "values": [{"measurement": "pIC50", "setting": "KDR (VEGFR2)", "value": "< 5.00"}, {"measurement": "pIC50", "setting": "CSF-1R (FMS) [3]", "value": "6.00 to 7.00"}]}, {"smiles": "Cc1cc(OCCN(C)C)c2oc3cc(Oc4cccnc4)ccc3c(=O)c2c1", "note": "[Example 53, 4-(2-(Dimethylamino)ethoxy)-2-methyl-6-(pyridin-3-yloxy)-9H-xanthen-9-one]", "values": [{"measurement": "pIC50", "setting": "KDR (VEGFR2)", "value": "< 5.00"}, {"measurement": "pIC50", "setting": "CSF-1R (FMS) [3]", "value": "6.00 to 7.00"}]}, {"smiles": "Cc1cc(OCCN2CCN(CC(F)(F)F)CC2)c2oc3cc(Oc4ccc(CCC(=O)NC5CCCC5)nc4)ccc3c(=O)c2c1", "note": "[Example 59, N-Cyclopentyl-3-(5-((7-methyl-9-oxo-5-(2-(4-(2,2,2-trifluoroethyl)piperazin-1-yl)ethoxy)-9H-xanthen-3-yl)oxy)pyridin-2-yl)propanamide]", "values": [{"measurement": "pIC50", "setting": "KDR (VEGFR2)", "value": "< 5.00"}, {"measurement": "pIC50", "setting": "CSF-1R (FMS) [3]", "value": "> 7.00"}]}, {"smiles": "Cc1cc(OCCN(C)C)c2oc3cc(Oc4ccc(N)nc4)ccc3c(=O)c2c1", "note": "[Example 17, 6-((6-Aminopyridin-3-yl)oxy)-4-(2-(dimethylamino)ethoxy)-2-methyl-9H-xanthen-9-one]", "values": [{"measurement": "pIC50", "setting": "KDR (VEGFR2)", "value": "< 5.00"}, {"measurement": "pIC50", "setting": "CSF-1R (FMS) [3]", "value": "6.00 to 7.00"}]}, {"smiles": "CNCCOc1cc(C)cc2c(=O)c3ccc(Oc4ccc(CCC(=O)NC5CCCC5)nc4)cc3oc12", "note": "[Example 29, N-Cyclopentyl-3-(5-((7-methyl-5-(2-(methylamino)ethoxy)-9-oxo-9H-xanthen-3-yl)oxy)pyridin-2-yl)propanamide]", "values": [{"measurement": "pIC50", "setting": "KDR (VEGFR2)", "value": "< 5.00"}, {"measurement": "pIC50", "setting": "CSF-1R (FMS) [3]", "value": "> 7.00"}]}, {"smiles": "Cc1cc(OCCCN2CCN(C(C)C)CC2)c2oc3cc(Oc4ccc(CCC(=O)NC5CCCC5)nc4)ccc3c(=O)c2c1", "note": "[Example 66, N-Cyclopentyl-3-(5-((5-(3-(4-isopropylpiperazin-1-yl)propoxy)-7-methyl-9-oxo-9H-xanthen-3-yl)oxy)pyridin-2-yl)propanamide]", "values": [{"measurement": "pIC50", "setting": "KDR (VEGFR2)", "value": "5.00 to 6.00"}, {"measurement": "pIC50", "setting": "CSF-1R (FMS) [3]", "value": "> 7.00"}]}, {"smiles": "CN(C)CCOc1cccc2c(=O)c3ccc(Oc4cccc(C(=O)Nc5ccccc5)c4)cc3oc12", "note": "[Example 2, 3-({5-[2-(Dimethylamino)ethoxy]-9-oxo-9H-xanthen-3-yl}oxy)-N-phenylbenzamide]", "values": [{"measurement": "pIC50", "setting": "KDR (VEGFR2)", "value": "5.00 to 6.00"}, {"measurement": "pIC50", "setting": "CSF-1R (FMS) [3]", "value": "> 7.00"}]}]}
